{"source": "ChEMBL document CHEMBL3132769", "about": "“Fragment growing to retain or alter the selectivity of anchored kinase hinge-binding fragments” (Medchemcomm, 2014)", "key": {"[1]": {"target": "T1, Mitogen-activated protein kinase 13 (Homo sapiens) (UniProt O15264)", "T1 sequence (whole entry)": "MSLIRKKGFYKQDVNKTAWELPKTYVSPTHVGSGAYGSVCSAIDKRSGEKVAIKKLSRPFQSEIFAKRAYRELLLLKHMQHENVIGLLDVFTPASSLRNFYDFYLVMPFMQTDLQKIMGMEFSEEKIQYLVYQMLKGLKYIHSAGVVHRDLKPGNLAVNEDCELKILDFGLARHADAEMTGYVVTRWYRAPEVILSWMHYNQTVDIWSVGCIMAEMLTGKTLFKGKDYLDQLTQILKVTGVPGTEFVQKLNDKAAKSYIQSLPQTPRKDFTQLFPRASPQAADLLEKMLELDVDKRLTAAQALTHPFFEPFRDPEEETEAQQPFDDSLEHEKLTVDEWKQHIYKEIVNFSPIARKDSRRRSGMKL", "assay": "Inhibition of human full length p38 delta expressed in Escherichia coli cell assessed as substrate phosphorylation using fluorescence-labelled peptides as substrate at 95 uM after 90 mins by microfluidic peptide phosphorylation assay"}, "[2]": {"system": "Tyrosine-protein kinase ABL1 (Homo sapiens), P00519 [Q252H]", "assay": "Inhibition of human truncated ABL Q252H mutant expressed in baculovirus assessed as substrate phosphorylation using fluorescence-labelled peptides as substrate at 95 uM after 90 mins by microfluidic peptide phosphorylation assay"}, "[3]": {"target": "Fibroblast growth factor receptor 3 (Homo sapiens) (UniProt P22607)", "sequence (P22607 23-806 limits assumed)": "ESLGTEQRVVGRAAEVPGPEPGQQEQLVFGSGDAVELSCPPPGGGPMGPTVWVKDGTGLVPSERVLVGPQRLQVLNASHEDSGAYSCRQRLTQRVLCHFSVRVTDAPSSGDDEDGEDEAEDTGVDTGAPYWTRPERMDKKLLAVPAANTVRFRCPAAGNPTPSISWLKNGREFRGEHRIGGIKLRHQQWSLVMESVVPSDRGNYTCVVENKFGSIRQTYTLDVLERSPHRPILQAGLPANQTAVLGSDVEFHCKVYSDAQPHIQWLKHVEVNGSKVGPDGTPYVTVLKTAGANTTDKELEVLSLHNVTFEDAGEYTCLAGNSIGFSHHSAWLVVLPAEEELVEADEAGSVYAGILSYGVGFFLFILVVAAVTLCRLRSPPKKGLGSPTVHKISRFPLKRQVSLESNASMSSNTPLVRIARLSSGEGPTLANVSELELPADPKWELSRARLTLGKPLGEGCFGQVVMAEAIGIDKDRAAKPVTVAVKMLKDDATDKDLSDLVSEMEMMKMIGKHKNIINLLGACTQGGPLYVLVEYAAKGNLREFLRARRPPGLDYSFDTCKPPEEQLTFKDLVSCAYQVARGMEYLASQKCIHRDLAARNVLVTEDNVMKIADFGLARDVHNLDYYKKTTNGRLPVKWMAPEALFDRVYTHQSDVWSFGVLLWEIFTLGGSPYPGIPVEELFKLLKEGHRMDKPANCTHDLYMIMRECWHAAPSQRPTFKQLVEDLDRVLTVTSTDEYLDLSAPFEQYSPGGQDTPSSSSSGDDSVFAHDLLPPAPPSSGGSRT", "assay": "Inhibition of human FGFR3 catalytic domain expressed in baculovirus assessed as substrate phosphorylation using fluorescence-labelled peptides as substrate at 0.2 uM after 90 mins by microfluidic peptide phosphorylation assay"}, "[4]": {"target": "Tyrosine-protein kinase HCK (Homo sapiens) (UniProt P08631)", "sequence (P08631 2-526 limits assumed)": "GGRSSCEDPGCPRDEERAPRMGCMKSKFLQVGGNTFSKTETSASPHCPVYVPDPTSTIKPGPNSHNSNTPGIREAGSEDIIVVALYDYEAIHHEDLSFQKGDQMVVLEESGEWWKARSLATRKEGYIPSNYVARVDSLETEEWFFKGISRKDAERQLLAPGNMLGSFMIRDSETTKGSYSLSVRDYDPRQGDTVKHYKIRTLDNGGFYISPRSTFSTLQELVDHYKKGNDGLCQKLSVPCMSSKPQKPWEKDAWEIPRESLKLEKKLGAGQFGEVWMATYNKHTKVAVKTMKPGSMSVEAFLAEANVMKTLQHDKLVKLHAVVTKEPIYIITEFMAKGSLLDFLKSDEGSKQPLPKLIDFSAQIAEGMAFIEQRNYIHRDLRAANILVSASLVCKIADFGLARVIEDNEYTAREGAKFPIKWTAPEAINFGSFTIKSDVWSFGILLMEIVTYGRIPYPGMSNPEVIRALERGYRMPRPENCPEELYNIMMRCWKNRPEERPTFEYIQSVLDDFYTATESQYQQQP", "assay": "Inhibition of human HCK catalytic domain expressed in baculovirus assessed as substrate phosphorylation using fluorescence-labelled peptides as substrate at 2 uM after 90 mins by microfluidic peptide phosphorylation assay"}, "[5]": {"system": "Fibroblast growth factor receptor 2 (Homo sapiens), P21802 [N549H]", "sequence (P21802 whole entry N549H, the tested form may be a part)": "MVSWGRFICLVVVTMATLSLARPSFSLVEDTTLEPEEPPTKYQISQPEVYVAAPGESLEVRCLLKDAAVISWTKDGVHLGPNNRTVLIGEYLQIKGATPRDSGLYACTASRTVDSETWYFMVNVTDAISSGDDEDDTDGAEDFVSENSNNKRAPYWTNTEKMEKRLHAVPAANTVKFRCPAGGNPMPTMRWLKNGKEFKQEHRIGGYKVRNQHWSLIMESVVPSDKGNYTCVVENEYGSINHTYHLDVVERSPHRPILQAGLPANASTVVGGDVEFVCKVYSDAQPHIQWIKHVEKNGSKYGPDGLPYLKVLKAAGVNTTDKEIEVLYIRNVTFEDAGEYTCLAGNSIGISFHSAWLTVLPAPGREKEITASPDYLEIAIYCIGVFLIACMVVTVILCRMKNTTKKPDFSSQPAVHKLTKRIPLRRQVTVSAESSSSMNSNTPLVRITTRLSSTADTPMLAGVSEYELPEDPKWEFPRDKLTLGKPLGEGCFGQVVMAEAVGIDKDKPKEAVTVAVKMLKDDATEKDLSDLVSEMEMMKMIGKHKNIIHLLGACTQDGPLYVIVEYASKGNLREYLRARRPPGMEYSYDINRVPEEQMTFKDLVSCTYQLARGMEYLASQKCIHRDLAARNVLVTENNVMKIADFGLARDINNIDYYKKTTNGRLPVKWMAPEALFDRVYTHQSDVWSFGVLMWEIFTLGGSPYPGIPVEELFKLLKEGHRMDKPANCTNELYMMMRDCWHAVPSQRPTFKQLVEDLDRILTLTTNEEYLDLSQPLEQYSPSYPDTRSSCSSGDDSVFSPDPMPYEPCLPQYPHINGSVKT", "assay": "Inhibition of human FGFR2 N549H mutant catalytic domain expressed in baculovirus assessed as substrate phosphorylation using fluorescence-labelled peptides as substrate at 0.06 uM after 90 mins by microfluidic peptide phosphorylation assay"}, "[6]": {"target": "T2, Serine/threonine-protein kinase BRSK2 (Homo sapiens) (UniProt Q8IWQ3)", "T2 sequence (whole entry)": "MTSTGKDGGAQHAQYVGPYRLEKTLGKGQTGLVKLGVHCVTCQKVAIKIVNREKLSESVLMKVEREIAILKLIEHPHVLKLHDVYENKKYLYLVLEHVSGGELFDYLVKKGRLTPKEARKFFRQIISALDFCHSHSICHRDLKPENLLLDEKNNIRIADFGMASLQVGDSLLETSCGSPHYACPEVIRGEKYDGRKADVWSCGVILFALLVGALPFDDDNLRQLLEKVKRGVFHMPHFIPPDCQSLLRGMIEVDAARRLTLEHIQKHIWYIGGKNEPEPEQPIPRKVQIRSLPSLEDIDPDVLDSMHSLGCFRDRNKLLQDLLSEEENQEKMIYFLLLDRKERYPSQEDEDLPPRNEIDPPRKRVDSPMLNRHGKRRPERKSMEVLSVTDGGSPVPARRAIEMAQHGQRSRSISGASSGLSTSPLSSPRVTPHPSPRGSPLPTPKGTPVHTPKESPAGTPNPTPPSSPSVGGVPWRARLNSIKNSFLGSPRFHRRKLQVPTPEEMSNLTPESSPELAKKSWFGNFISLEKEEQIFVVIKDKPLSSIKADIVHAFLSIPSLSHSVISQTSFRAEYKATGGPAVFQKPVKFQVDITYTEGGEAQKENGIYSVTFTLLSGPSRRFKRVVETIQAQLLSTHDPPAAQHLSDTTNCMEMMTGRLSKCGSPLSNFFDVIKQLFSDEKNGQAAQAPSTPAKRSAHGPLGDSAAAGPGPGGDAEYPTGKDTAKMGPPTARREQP", "assay": "Inhibition of human truncated BRSK2 expressed in baculovirus assessed as substrate phosphorylation using fluorescence-labelled peptides as substrate at 0.1 uM after 90 mins by microfluidic peptide phosphorylation assay"}, "[7]": {"target": "T3, Mitogen-activated protein kinase 12 (Homo sapiens) (UniProt P53778)", "T3 sequence (whole entry)": "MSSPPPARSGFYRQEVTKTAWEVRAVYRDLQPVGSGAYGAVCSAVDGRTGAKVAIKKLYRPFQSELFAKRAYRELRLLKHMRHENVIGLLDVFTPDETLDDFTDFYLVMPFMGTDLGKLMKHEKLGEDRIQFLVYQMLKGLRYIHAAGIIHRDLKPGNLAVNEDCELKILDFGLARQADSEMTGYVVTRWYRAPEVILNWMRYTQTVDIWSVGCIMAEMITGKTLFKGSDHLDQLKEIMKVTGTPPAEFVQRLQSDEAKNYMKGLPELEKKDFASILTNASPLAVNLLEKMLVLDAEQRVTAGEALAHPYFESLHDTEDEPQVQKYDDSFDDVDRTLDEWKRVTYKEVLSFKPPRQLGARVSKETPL", "assay": "Inhibition of human full length p38 gamma expressed in Escherichia coli cell assessed as substrate phosphorylation using fluorescence-labelled peptides as substrate at 0.1 uM after 90 mins by microfluidic peptide phosphorylation assay"}, "[8]": {"target": "T4, Calcium/calmodulin-dependent protein kinase type IV (Homo sapiens) (UniProt Q16566)", "T4 sequence (whole entry)": "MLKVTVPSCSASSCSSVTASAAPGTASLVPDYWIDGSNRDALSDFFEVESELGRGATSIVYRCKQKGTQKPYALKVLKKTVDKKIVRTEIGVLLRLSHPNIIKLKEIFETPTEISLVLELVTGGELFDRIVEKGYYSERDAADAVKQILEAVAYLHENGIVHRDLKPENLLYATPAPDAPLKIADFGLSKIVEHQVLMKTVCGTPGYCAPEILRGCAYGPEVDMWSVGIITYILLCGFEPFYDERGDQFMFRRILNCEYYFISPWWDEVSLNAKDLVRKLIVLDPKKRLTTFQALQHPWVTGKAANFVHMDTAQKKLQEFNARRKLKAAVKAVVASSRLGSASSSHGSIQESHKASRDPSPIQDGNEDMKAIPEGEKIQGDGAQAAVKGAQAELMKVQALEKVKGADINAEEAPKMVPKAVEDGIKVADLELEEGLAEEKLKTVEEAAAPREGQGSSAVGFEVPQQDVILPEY", "assay": "Inhibition of human full length CAMK4 expressed in baculovirus assessed as substrate phosphorylation using fluorescence-labelled peptides as substrate at […] after 90 mins by microfluidic peptide phosphorylation assay"}, "[9]": {"target": "Tyrosine-protein kinase BTK (Homo sapiens) (UniProt Q06187)", "sequence (Q06187 whole entry)": "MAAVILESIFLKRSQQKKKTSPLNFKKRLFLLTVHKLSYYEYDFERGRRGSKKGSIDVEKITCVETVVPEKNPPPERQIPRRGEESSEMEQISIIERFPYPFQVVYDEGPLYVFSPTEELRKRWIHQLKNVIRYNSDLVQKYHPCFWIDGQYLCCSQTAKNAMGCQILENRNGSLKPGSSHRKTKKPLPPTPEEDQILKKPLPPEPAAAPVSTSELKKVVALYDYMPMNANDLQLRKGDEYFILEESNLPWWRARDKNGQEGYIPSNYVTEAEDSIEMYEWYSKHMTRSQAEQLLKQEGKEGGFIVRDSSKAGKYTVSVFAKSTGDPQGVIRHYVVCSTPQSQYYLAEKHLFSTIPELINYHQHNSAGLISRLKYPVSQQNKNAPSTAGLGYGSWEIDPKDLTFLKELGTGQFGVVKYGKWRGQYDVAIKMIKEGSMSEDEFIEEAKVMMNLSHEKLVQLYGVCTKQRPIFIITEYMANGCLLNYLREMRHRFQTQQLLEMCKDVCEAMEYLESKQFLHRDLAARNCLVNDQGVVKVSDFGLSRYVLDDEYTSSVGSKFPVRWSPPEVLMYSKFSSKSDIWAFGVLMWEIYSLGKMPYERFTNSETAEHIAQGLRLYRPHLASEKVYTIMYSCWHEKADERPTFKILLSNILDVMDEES", "assay": "Inhibition of human full length BTK expressed in baculovirus assessed as substrate phosphorylation using fluorescence-labelled peptides as substrate at 9 uM after 90 mins by microfluidic peptide phosphorylation assay"}, "[10]": {"target": "Protein kinase C beta type (Homo sapiens) (UniProt P05771)", "sequence (P05771 2-671 limits assumed)": "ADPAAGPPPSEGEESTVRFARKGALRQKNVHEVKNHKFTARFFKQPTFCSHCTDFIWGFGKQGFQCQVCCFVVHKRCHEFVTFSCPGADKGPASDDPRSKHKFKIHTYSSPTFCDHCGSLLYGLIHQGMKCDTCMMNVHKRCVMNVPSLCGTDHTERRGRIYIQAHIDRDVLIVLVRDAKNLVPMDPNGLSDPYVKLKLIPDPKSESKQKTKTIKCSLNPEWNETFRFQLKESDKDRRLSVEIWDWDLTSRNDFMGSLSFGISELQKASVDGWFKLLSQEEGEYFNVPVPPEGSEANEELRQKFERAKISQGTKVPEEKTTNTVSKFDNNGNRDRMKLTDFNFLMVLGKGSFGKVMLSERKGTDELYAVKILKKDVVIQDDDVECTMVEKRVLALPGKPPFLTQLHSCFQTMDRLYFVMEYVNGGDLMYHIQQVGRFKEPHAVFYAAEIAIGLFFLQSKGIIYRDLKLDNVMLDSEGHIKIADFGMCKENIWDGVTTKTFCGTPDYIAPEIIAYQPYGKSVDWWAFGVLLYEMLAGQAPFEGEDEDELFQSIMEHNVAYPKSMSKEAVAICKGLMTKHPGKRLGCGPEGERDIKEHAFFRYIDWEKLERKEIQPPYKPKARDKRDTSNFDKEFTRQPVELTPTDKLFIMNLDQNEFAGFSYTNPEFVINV", "assay": "Inhibition of human truncated PKC beta1 expressed in baculovirus assessed as substrate phosphorylation using fluorescence-labelled peptides as substrate at 70 uM after 90 mins by microfluidic peptide phosphorylation assay"}, "[11]": {"target": "Mitogen-activated protein kinase kinase kinase kinase 4 (Homo sapiens) (UniProt O95819)", "sequence (O95819 2-1239 limits assumed)": "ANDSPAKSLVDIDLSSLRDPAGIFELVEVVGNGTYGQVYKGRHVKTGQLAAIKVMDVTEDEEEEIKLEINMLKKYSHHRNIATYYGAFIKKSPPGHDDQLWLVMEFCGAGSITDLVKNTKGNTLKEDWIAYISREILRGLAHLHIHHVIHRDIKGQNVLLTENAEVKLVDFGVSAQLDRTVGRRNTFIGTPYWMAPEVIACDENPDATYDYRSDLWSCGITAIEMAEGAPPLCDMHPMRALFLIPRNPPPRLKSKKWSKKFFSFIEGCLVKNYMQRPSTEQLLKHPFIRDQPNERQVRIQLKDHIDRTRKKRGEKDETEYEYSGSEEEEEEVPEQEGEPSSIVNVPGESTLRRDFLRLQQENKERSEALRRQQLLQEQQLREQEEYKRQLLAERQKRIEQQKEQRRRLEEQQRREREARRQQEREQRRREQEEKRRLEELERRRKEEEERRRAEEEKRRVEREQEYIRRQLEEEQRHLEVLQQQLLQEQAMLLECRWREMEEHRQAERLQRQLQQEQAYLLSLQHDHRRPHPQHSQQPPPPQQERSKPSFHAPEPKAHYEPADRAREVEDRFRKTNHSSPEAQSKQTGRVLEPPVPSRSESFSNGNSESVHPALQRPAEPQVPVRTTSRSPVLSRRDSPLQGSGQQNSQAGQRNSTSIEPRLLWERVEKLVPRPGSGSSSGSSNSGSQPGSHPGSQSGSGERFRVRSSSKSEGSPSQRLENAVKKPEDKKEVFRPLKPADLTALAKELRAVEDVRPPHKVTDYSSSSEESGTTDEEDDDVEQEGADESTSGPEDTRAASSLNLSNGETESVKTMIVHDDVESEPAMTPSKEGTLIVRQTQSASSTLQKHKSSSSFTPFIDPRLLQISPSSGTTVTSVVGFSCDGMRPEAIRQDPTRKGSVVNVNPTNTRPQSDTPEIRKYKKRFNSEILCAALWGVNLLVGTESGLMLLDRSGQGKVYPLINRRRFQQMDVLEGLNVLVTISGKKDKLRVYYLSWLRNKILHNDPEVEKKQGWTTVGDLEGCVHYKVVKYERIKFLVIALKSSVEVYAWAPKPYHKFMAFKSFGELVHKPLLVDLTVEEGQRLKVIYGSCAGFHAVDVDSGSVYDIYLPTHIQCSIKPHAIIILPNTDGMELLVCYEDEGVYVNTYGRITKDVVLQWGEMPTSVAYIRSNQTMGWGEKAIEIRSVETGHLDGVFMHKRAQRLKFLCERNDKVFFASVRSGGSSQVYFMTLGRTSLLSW", "assay": "Inhibition of human HGK catalytic domain expressed in baculovirus assessed as substrate phosphorylation using fluorescence-labelled peptides as substrate at 70 uM after 90 mins by microfluidic peptide phosphorylation assay"}}, "data": [{"smiles": "NCCc1ccc(-c2ncnc3[nH]cnc23)cc1", "values": [{"measurement": "inhibition", "setting": "[1]", "result": 13, "unit": "%"}, {"measurement": "inhibition", "setting": "[2]", "result": 67.5, "unit": "%"}]}, {"smiles": "Clc1ccc(C2(c3ccc(-c4ncnc5[nH]cnc45)cc3)CCNCC2)cc1", "values": [{"measurement": "inhibition", "setting": "[3]", "result": 0, "unit": "%"}]}, {"smiles": "NC1CCN(c2ncnc3[nH]ccc23)CC1", "values": [{"measurement": "inhibition", "setting": "[4]", "result": 3, "unit": "%"}]}, {"smiles": "NC1(Cc2ccc(Cl)cc2)CCN(c2ncnc3[nH]ccc23)CC1", "values": [{"measurement": "inhibition", "setting": "[5]", "result": 5, "unit": "%"}]}, {"smiles": "C[C@H](CN(C)C)Oc1nc(Nc2cc3cccc(Cl)c3cn2)cnc1C#N", "values": [{"measurement": "inhibition", "setting": "[6]", "result": 28.5, "unit": "%"}, {"measurement": "inhibition", "setting": "[7]", "result": 5.5, "unit": "%"}]}, {"smiles": "COC(=O)c1cnc(Nc2cnc(C#N)cn2)cc1NCC1CCNCC1", "values": [{"measurement": "inhibition", "setting": "[8]", "result": 0.5, "unit": "%"}]}, {"smiles": "NCC1CN(c2ncnc3[nH]c4cnccc4c23)CCO1", "note": "(stereo unspecified)", "values": [{"measurement": "inhibition", "setting": "[9]", "result": 11, "unit": "%"}]}, {"smiles": "CNCc1ccc(-c2ncnc3[nH]cnc23)cc1", "values": [{"measurement": "inhibition", "setting": "[10]", "result": 73.5, "unit": "%"}, {"measurement": "inhibition", "setting": "[11]", "result": 42, "unit": "%"}]}]}
